Measured values from the supplement of paper PMC11451515.

Test system: NOMO1
Assay: cell viability relative to DMSO control; higher = less cytotoxic
Settings: 48 h
Summary of the method: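 NOMO1 or SEM (500 cells/well) or P12-Ichikawa (1000 cells/well) leukemia cells were adapted for at least four passages in each medium. They were seeded in 1536-well plates (5 μl) and pin-dosed with library compounds in DMSO over an 11-point threefold series, 47 μM to 0.79 nM. CellTiter-Glo One luminescence was read after 48 h at 37°C. Viability is the per-plate percentage relative to DMSO wells, with cell-free wells as background.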

[1] = HPLM + 10% dialyzed FBS, 0.000781 µM
[2] = HPLM + 10% dialyzed FBS, 0.00234 µM
[3] = HPLM + 10% dialyzed FBS, 0.00702 µM
[4] = HPLM + 10% dialyzed FBS, 0.0211 µM
[5] = HPLM + 10% dialyzed FBS, 0.0632 µM
[6] = HPLM + 10% dialyzed FBS, 0.19 µM
[7] = HPLM + 10% dialyzed FBS, 0.569 µM
[8] = HPLM + 10% dialyzed FBS, 1.71 µM
[9] = HPLM + 10% dialyzed FBS, 5.12 µM
[10] = HPLM + 10% dialyzed FBS, 15.4 µM
[11] = HPLM + 10% dialyzed FBS, 46.1 µM
[12] = RPMI 5 mM glucose + 10% FBS, 0.000781 µM
[13] = RPMI 5 mM glucose + 10% FBS, 0.00234 µM
[14] = RPMI 5 mM glucose + 10% FBS, 0.00702 µM
[15] = RPMI 5 mM glucose + 10% FBS, 0.0211 µM
[16] = RPMI 5 mM glucose + 10% FBS, 0.0632 µM
[17] = RPMI 5 mM glucose + 10% FBS, 0.19 µM
[18] = RPMI 5 mM glucose + 10% FBS, 0.569 µM
[19] = RPMI 5 mM glucose + 10% FBS, 1.71 µM
[20] = RPMI 5 mM glucose + 10% FBS, 5.12 µM
[21] = RPMI 5 mM glucose + 10% FBS, 15.4 µM
[22] = RPMI 5 mM glucose + 10% FBS, 46.1 µM
[23] = RPMI 5 mM glucose + 10% dialyzed FBS, 0.000781 µM
[24] = RPMI 5 mM glucose + 10% dialyzed FBS, 0.00234 µM
[25] = RPMI 5 mM glucose + 10% dialyzed FBS, 0.00702 µM
[26] = RPMI 5 mM glucose + 10% dialyzed FBS, 0.0211 µM
[27] = RPMI 5 mM glucose + 10% dialyzed FBS, 0.0632 µM
[28] = RPMI 5 mM glucose + 10% dialyzed FBS, 0.19 µM
[29] = RPMI 5 mM glucose + 10% dialyzed FBS, 0.569 µM
[30] = RPMI 5 mM glucose + 10% dialyzed FBS, 1.71 µM
[31] = RPMI 5 mM glucose + 10% dialyzed FBS, 5.12 µM
[32] = RPMI 5 mM glucose + 10% dialyzed FBS, 15.4 µM
[33] = RPMI 5 mM glucose + 10% dialyzed FBS, 46.1 µM

SMILES	cell viability [1] [%]	cell viability [2] [%]	cell viability [3] [%]	cell viability [4] [%]	cell viability [5] [%]	cell viability [6] [%]	cell viability [7] [%]	cell viability [8] [%]	cell viability [9] [%]	cell viability [10] [%]	cell viability [11] [%]	cell viability [12] [%]	cell viability [13] [%]	cell viability [14] [%]	cell viability [15] [%]	cell viability [16] [%]	cell viability [17] [%]	cell viability [18] [%]	cell viability [19] [%]	cell viability [20] [%]	cell viability [21] [%]	cell viability [22] [%]	cell viability [23] [%]	cell viability [24] [%]	cell viability [25] [%]	cell viability [26] [%]	cell viability [27] [%]	cell viability [28] [%]	cell viability [29] [%]	cell viability [30] [%]	cell viability [31] [%]	cell viability [32] [%]	cell viability [33] [%]
Cc1nn(Cc2ccccc2Cl)c(C)c1CN(C)CC(O)COc1ccc(Cl)cc1 (configuration not stated)	106	101	98	97.7	99.7	103	108	106	85.8	83.1	22.5	100	92.9	89.1	90.4	90.5	94.1	99.5	93.7	90.8	85.6	34.5	94.7	101	110	101	106	99.4	100	94.4	83.9	75.3	27.2
CN[C@@H]1[C@@H](O)[C@@H](O[C@@H]2[C@@H](O)[C@H](O[C@H]3O[C@H](CN)[C@@H](O)[C@H](O)[C@H]3O)[C@@H](N)C[C@H]2NC(=O)[C@@H](O)CN)OC[C@]1(C)O	120	132	115	135	148	130	140	110	113	103	120												130	115	110	127	112	132	116	107	99.9	117	98.6
OC(c1cc(C(F)(F)F)nc2c(C(F)(F)F)cccc12)C1CCCCN1 (configuration not stated)	117	124	115	127	146	150	158	142	143	114	8.46																						
CC(C)c1nc(CN(C)C(=O)N[C@H](C(=O)N[C@@H](Cc2ccccc2)C[C@H](O)[C@H](Cc2ccccc2)NC(=O)OCc2cncs2)C(C)C)cs1	92.4	107	100	95.3	89.9	88.9	98.5	70.5	94.4	80.7	74.3	75.3	75.3	78.5	81.2	77.4	80.2	77.6	79.3	79.9	75.7	79	86.5	80.7	93	90.6	92.8	83.2	81.7	77.1	84.9	79.2	77.1
CN(C)C1CCN(C(=O)c2ccc(NC(=O)Nc3nc(N4CCOCC4)nc(N4CCOCC4)n3)cc2)CC1	85.5	100	80	67.8	60.6	52.9	43.1	44.9	40.5	28.7	25.1	84.8	89.3	90.5	84.5	64.9	63.6	52.7	49	43.4	36.5	18.2	84.9	83.8	83.9	70.9	60.8	53.3	45.8	44.4	39.6	38	22.8
